The values that follow come from ChEMBL document CHEMBL3714744, “Aryl sulfonamides” (2009).

Active and inactive are the calls of the source. No cut-off for these calls is given here.

The first assay has as its target T1, C-C chemokine receptor type 9 (Homo sapiens, UniProt P51686).
T1 sequence (P51686 whole entry): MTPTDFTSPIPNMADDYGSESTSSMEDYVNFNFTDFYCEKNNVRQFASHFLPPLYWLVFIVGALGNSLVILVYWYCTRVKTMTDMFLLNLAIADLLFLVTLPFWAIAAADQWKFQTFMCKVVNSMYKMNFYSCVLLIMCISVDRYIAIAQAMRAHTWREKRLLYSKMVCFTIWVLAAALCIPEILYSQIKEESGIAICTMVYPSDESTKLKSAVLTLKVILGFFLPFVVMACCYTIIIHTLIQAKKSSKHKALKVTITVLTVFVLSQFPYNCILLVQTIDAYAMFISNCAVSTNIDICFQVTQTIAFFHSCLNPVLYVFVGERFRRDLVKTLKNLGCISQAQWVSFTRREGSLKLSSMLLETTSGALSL
Briefly: Antagonist activity against CCR9 in human MOLT4 cells assessed as inhibition of human recombinant TECK-induced calcium response pre-treated before TECK stimulation by Flou-4-AM dye based FLIPR assay. It counts as functional, cell-based, MOLT-4.
Conditions: not given
As for `COC(=O)CCc1ccc(S(=O)(=O)Nc2ccc(Cl)cc2C(=O)c2ccnc(C)c2)cc1`, the IC50 is under 100 nM.

For the compound `CC(=O)c1ccc(S(=O)(=O)Nc2ccc(Br)cc2C(=O)c2ccncc2)cc1`, the IC50 is under 100 nM.

Consider `O=C(c1ccncc1)c1cc(Cl)ccc1NS(=O)(=O)c1ccc([N+](=O)[O-])cc1`, for which the IC50 is under 100 nM.

In the case of `Cc1cc(C(=O)c2cc(Cl)ccc2NS(=O)(=O)c2ccc(S(C)(=O)=O)cc2)ccn1`, the IC50 was under 100 nM.

Regarding `CS(=O)(=O)c1ccc(S(=O)(=O)Nc2ccc(Cl)cc2C(=O)c2cccnc2)cc1`, the concentration for half-maximal inhibition (IC50) is under 100 nM.

The assay is the same for the next values; noted with them: molt-4.
Turning to `Cc1ncccc1C(=O)c1cc(Cl)ccc1NS(=O)(=O)c1ccc(-c2cnco2)cc1`, the IC50 result was “in the range around 1000 nM”.

Regarding `COc1ccc(S(=O)(=O)Nc2ccc(Cl)cc2C(=O)c2ccccn2)cc1`, the half-inhibitory concentration (IC50) result is “in the range around 100 nM”.

For `Cc1ncccc1C(=O)c1cc(Cl)ccc1NS(=O)(=O)c1ccc(OC(F)(F)F)cc1`, the IC50 result was “in the range around 100 nM”.

The test system of the next assay is Mus musculus. As to the kind of experiment: Inhibition of inflammatory bowel disease-associated growth retardation in MDR1a-knockout mouse at 50 mg/kg, sc dosed twice daily for 14 consecutive weeks starting at age 10 weeks. It counts as functional, organism-based.
Conditions: not given
With `CC(C)(C)c1ccc(S(=O)(=O)Nc2ccc(Cl)cc2C(=O)c2ccncc2)cc1`, the inhibition entry was “Active”.
